Results reported in article PMC3326647, “Single Enantiomer of YK-4-279 Demonstrates Specificity in Targeting the Oncogene EWS-FLI1” (Oncotarget, 2012).
Like-named read-outs stand apart in the source and are kept apart here.

Key:
[1] = biological target: T1, EWS-FLI1 transcriptional activity (Homo sapiens, UniProt Q01543+Q01844); experiment: NR0B1-luciferase reporter assay in COS7 cells transfected with EWS-FLI1; assay type: cell-based; details: for luciferase activity compared to vehicle: COS7 cells, dose of 0.3μM
T1 sequence (Q01844 1-264): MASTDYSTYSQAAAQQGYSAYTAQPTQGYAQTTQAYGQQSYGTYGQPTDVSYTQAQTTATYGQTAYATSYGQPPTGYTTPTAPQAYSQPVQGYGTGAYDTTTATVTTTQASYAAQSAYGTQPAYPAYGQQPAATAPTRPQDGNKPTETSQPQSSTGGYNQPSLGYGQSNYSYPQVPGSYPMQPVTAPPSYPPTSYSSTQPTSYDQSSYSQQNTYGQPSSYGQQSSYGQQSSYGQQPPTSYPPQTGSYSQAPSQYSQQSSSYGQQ
T1 sequence (Q01543 220-452): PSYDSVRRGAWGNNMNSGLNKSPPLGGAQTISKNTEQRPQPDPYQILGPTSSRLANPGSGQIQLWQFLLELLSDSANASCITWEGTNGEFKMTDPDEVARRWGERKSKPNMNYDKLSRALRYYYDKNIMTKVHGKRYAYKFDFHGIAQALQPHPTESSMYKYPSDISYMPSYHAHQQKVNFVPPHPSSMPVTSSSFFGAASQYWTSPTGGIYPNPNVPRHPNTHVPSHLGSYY
Experimental: Cells were transiently transfected with the NR0B1 luciferase reporter and full length EWS-FLI1 into COS7 cells with Fugene-6 (Roche) according to the manufacturer's protocol. Two hours after transformation, cells were treated with 0.3, 1, and 3μM of YK-4-279, (S)-YK-4-279, and (R)-YK-4-279. Luciferase activity was measured 16 hours after treatment. Protein concentration was normalized by absorbance at 280nm. All luciferase assays were performed using a luciferase assay kit according to the manufacturer's protocol (Promega).

[2] = test system: Cyclin D1b/D1a mRNA level in A673i cells; experiment: Quantitative RT-PCR of Cyclin D1b/D1a mRNA in A673i cells; assay type: cell-based; details: 1μM, 8 hours
Experimental: A673i cells were treated with 1μM small molecule for 8 hours. Positive control cells were treated with tetracycline for 72 hours to knock down expression of EWS-FLI1. Total RNA was extracted using an RNeasy Micro Kit (Qiagen) and reverse transcribed using the Transcriptor First Strand cDNA Synthesis Kit (Roche) per the manufacturer's instructions. qPCR was performed using an Eppendorf Mastercycler Realplex with FastStart Universal SYBR Green Master with ROX (Roche) with primers for 18S, CyclinD1a, and CyclinD1b. Data were analyzed for expression relative to 18S using the comparative Ct method. Data from four separate experiments performed in duplicate were averaged.

RDES cells = experiment: Cellular proliferation (WST) assay, RDES; assay type: cell-based; details: for IC50: RD-ES, 72 h, RDES, ESFT (Type 2), read-out: IC50 at 3 days (+/− SEM)
Experimental: (§1) TC32, TC71, RDES, MMH-ES-1, STA-ET 7.2, A4573, and PC3 cells were grown in RPMI with 10% FBS and 1% HEPES. SKES cells were grown in McCoy's 5A medium with 15% FBS. MCF7, MDA-MB-231, PANC1, and ASPC1 cells were grown in colorless DMEM with 10% FBS. Cells were grown at a plating density of 5,000 – 15,000 cells/well, depending on cell line, in a 96-well plate. Small molecule or vehicle alone (DMSO) were added to cells in appropriate growth media the day after plating. After three days, viable cells were quantified using WST (Roche) according to the manufacturer's protocol. IC50 values were calculated by sigmoidal dose-response curve fit using Prism Graphpad 4.0.

SKES cells = experiment: Cellular proliferation (WST) assay, SKES; assay type: cell-based; details: 72 h, ESFT (Type 2), read-out: IC50 at 3 days (+/− SEM)
Experimental: as §1

PC3 cells = experiment: Cellular proliferation (WST) assay, PC3; assay type: cell-based; details: Homo sapiens, PC-3, 72 h, read-out: IC50 at 3 days (+/− SEM)
Experimental: as §1

PANC1 cells [3] = experiment: Cellular proliferation (WST) assay, PANC1; assay type: cell-based; details: Homo sapiens, PANC-1, 72 h; PANC1, pancreatic; read-out: IC50 at 3 days (+/− SEM)
Experimental: as §1

[4] = Pharmacokinetic analysis in rats; assay type: in vivo; details: both sexes, Sprague-Dawley, plasma, po; rat, gavage administration
Experimental: (§2) All pharmacokinetic studies were performed using Sprague-Dawley rats. Nine rats per gender were assigned to nine dose groups, which received either a single IV injection of YK-4-279, (S)-YK-4-279, or (R)-YK-4-279 at a target dose of 25 mg/kg, or a single gavage administration of small molecule at a target dose level of 25 or 50 mg/kg. Plasma was obtained from the rats and samples were processed by liquid extraction followed by analysis using liquid chromatography with mass spectrometry (LC/MS). Average urine concentrations were measured at intervals from 0-4, 4-8, and 8-12 hours after dosing. 18 Fox Chase SCID Beige mice were injected with A4573 cells and received six doses of (S)-YK-4-279 at 75 mg/kg to determine concentration of small molecule in the tumors.

[5] = test system: caspase-3 activity in ESFT cells (TC32, RDES, SKES, A4573, MMH-ES-1, STA-ET 7.2); experiment: Caspase-3 activity in ESFT cells; assay type: cell-based; details: 10μM, 18 hours
Experimental: (§3) Cells were plated at 100,000 – 200,000 cells/well, depending on cell line, in a 12 well plate. Small molecule was added the following day. 18 hours later, lysates were collected using the manufacturer's protocol for the AC-DEVD-AMC substrate (BD Bioscience Pharmingen). Caspase-3 substrate was incubated for 2 hours with protein lysate and fluorescence from cleaved substrate was measured in a fluorimeter. Fluorescent signal was then normalized to protein lysate via BCA assay.

[6] = test system: caspase-3 activity in A4573 ESFT cells; experiment: Caspase-3 activation dose titration in A4573 cells; assay type: cell-based; details: between 0.3 and 1μM, 18 hours
Experimental: as §3

[7] = Evaluation of racemization in A4573 ESFT xenograft tumors; assay type: in vivo; details: A4573 tumor-bearing SCID mice, IP (75 mg/kg), tumors resected two hours following dosing
Experimental: as §2

MDA-MB-231 cells = details: MDA-MB-231 from a different source, previously reported; cited from earlier work
PANC1 cells [8] = details: PANC1 from a different source, previously reported; cited from earlier work
[9] = test system: non-transformed cell lines; parameters: method as in PMID 19584866; details: racemic; cited from earlier work
[10] = parameters: method as in PMID 19584866; details: xenograft mice, 75 mg per kg body weight; cited from earlier work

SMILES | luciferase activity compared to control ([1]; COS7 cells, 0.3, 1 and 3μM) | D1b/D1a mRNA ratio [2] | IC50 (RDES cells) [µM] | IC50 (SKES cells) [µM] | IC50 (PC3 cells) [µM] | IC50 (PANC1 cells [3]) [µM] | bioavailability [4] [%] | luciferase activity compared to vehicle [1] | more potent at the D1b/D1a reduction than racemic [2] | fold-difference in IC50 between the racemic and the active enantiomer (RDES cells; RDES cells) [fold] | caspase-3 activation, average across the panel of six ESFT cell lines [5] [fold] | slope (m), rate of caspase activity increase [6] | Percent of (S)-YK-4-279 present in tumor [7] [%] | IC50 (MDA-MB-231 cells) [µM] | IC50 (PANC1 cells [8]) [µM] | IC50 [9] [µM] | toxicity [10]
COc1ccc(C(=O)C[C@]2(O)C(=O)Nc3c(Cl)ccc(Cl)c32)cc1 [(R)-YK-4-279] | did not show significant reduction from control | maintained a D1b/D1a ratio equivalent to the vehicle treated cells | 12.7 | 21 | > 30 | 24.9 | 8 to 15 | – | – | – | – | – | – | – | – | – | –
COc1ccc(C(=O)C[C@@]2(O)C(=O)Nc3c(Cl)ccc(Cl)c32)cc1 [(S)-YK-4-279] | – | reduced this ratio to a level equivalent to the EWS-FLI1 reduction | 0.87 | 0.18 | 3.79 | 1.69 | 2 to 6 | significantly reduced | approximately 35% | 1.18 | 10.3 | 7.23 ± 0.32 | 100 | – | – | – | –
COc1ccc(C(=O)CC2(O)C(=O)Nc3c(Cl)ccc(Cl)c32)cc1 (stereo not shown) [YK-4-279] | – | reduction in the D1b/D1a levels | 1.03 | 0.33 | 4.95 | 1.51 | – | not significant | – | – | 8.8 | 4.43 ± 0.66 | – | > 20 | > 20 | > 30 | no toxicity
